Holding throughout (assay type): biochemical
Assay [1] has as its target cloned human μ opioid receptor (MOP) (Homo sapiens, UniProt P35372). Briefly: [35S]GTPγS binding assay, inhibition of DAMGO-stimulated binding. On the technique in general: GTPγS is a poorly hydrolysed GTP analogue; its binding reports G protein activation.
Assay [2] concerns the target cloned human δ opioid receptor (DOP) (Homo sapiens, UniProt P41143). In words: [35S]GTPγS binding assay, inhibition of DPDPE-stimulated binding.
Assay [3] addresses cloned human κ opioid receptor (KOP) (Homo sapiens, UniProt P41145). In words: [35S]GTPγS binding assay, inhibition of U69,593-stimulated binding. Particulars: for δ/κ: selectivity for κ relative to δ (fold).

Chain of cloned human κ opioid receptor (KOP) (P41145 whole entry): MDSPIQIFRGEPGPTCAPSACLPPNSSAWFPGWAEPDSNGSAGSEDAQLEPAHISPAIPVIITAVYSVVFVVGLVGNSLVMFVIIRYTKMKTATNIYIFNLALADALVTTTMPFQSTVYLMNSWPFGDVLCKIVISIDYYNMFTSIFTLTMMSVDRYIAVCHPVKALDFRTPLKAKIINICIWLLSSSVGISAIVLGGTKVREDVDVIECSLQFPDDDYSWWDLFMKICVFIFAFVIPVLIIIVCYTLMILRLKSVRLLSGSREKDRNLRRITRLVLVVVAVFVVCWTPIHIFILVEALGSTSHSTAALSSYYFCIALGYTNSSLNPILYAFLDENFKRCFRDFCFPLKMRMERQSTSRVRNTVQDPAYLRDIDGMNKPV
Chain of cloned human δ opioid receptor (DOP) (P41143 whole entry): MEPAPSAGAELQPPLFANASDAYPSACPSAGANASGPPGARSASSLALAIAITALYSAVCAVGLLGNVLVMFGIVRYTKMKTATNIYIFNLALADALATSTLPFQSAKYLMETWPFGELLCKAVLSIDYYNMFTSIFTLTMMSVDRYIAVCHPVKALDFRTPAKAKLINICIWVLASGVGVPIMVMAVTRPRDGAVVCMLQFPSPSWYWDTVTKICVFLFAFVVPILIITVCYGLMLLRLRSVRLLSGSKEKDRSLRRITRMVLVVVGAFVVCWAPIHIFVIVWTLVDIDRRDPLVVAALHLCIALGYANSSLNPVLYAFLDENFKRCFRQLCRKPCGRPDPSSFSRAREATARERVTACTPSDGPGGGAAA
Chain of cloned human μ opioid receptor (MOP) (P35372 whole entry): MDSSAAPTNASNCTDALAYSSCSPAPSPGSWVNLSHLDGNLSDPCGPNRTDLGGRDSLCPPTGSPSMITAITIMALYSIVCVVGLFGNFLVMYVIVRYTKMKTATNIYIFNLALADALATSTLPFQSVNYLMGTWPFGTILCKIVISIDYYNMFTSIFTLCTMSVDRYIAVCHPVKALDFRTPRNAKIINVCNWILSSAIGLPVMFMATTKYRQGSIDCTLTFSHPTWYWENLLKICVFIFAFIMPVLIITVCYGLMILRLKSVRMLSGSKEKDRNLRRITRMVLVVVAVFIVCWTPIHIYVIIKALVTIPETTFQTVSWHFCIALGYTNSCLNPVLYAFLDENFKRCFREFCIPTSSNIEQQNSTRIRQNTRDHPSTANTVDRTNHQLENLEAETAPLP

As to `CC(C)[C@@H](CN1CCN(c2cccc(O)c2)[C@@H](C)C1)NC(=O)[C@H]1Cc2ccc(O)cc2CN1` [10a, (3R)-7-Hydroxy-N-[(1S)-1-{[(3S)-4-(3-hydroxyphenyl)-3-methylpiperazin-1-yl]methyl}-2-methylpropyl]-1,2,3,4-tetrahydroisoquinoline-3-carboxamide], the Kb was found to be 74.2 ± 7.6 nM in assay [1] and 1310 ± 317 nM in assay [2].
For `CC(C)[C@@H](CN1CCN(c2cccc(O)c2)[C@H](C)C1)NC(=O)[C@H]1Cc2ccc(O)cc2CN1` [10b, (3R)-7-Hydroxy-N-[(1S)-1-[[(3R)-4-(3-hydroxyphenyl)-3-methylpiperazin-1-yl]methyl}-2-methylpropyl]-1,2,3,4-tetrahydroisoquinoline-3-carboxamide], in that order: 49.4 ± 2.7 nM and 1550 ± 251 nM.
For `Cc1cccc(Oc2ccc(C(=O)N[C@H](CN3CCN(c4cccc(O)c4)[C@@H](C)C3)C(C)C)c(C)c2)c1` [12f, N-[(1S)-1-{[(3S)-4-(3-Hydroxyphenyl)-3-methylpiperazin-1-yl]methyl}-2-methylpropyl]-2-methyl-4-(3-methylphenoxy)benzamide], in that order: 18 ± 3 nM and 14 ± 3 nM.
Regarding `Cc1cccc(Oc2ccc(C(=O)N[C@H](CN3CCN(c4cccc(O)c4)[C@@H](C)C3)C(C)C)c(O)c2)c1` [12h, 2-Hydroxy-N-[(1S)-1-{[(3S)-4-(3-hydroxyphenyl)-3-methylpiperazin-1-yl]methyl}-2-methylpropyl]-4-(3-methylphenoxy)benzamide], the Kb in assay [1] was 119 ± 28 nM; in assay [2], 880 ± 320 nM; in assay [3], 1.9 ± 0.4 nM.
Turning to `COc1cc(C(=O)N[C@H](CN2CCN(c3cccc(O)c3)[C@@H](C)C2)C(C)C)ccc1Oc1ccccc1O` [12i, 4-(2-Hydroxyphenoxy)-N-[(1S)-1-{[(3S)-4-(3-hydroxyphenyl)-3-methylpiperazin-1-yl]methyl}-2-methylpropyl]-3-methoxybenzamide], the Kb in assay [2] was 117 ± 60 nM.
Consider `CC(C)[C@@H](CN1CCN(c2cccc(O)c2)[C@@H](C)C1)NC(=O)c1ccc(Oc2ccccc2O)c(Cl)c1` [12j, 3-Chloro-4-(2-hydroxyphenoxy)-N-[(1S)-1-{[(3S)-4-(3-hydroxyphenyl)-3-methylpiperazin-1-yl]methyl}-2-methylpropyl]benzamide], for which the values for the Kb in assay [1], in assay [2] and in assay [3] were 36 ± 9 nM, 210 ± 82 nM and 5 ± 0.82 nM, respectively.
Consider `COc1cc(C(=O)N[C@H](CN2CCN(c3cccc(O)c3)[C@@H](C)C2)C(C)C)ccc1Oc1cc(C)ccc1O` [12k, 4-(2-Hydroxy-5-methylphenoxy)-N-[(1S)-1-{[(3S)-4-(3-hydroxyphenyl)-3-methylpiperazin-1-yl]methyl}-2-methylpropyl]-3-methoxybenzamide], for which the Kb came out at 10.2 ± 3 nM in assay [1] and 117 ± 80 nM in assay [2].
Turning to `CC(C)[C@@H](CN1CCN(c2cccc(O)c2)[C@@H](C)C1)NC(=O)c1ccc(-c2ccccc2)cc1` [compound 22, N-[(1S)-1-{[(3S)-4-(3-Hydroxyphenyl)-3-methylpiperazin-1-yl]methyl}-2-methylpropyl]biphenyl-4-carboxamide], the Kb in assay [1] came out at 8.69 ± 3 nM; in assay [2], 258 ± 88 nM; in assay [3], 1.87 ± 0.47 nM.
In the same order, the values of `CCCCc1ccc(C(=O)N[C@H](CN2CCN(c3cccc(O)c3)[C@@H](C)C2)C(C)C)cc1` [compound 23, 4-Butyl-N-[(1S)-1-{[(3S)-4-(3-hydroxyphenyl)-3-methylpiperazin-1-yl]methyl}-2-methylpropyl]benzamide] are 21.1 ± 2 nM, 230 ± 3 nM and 2.8 ± 1 nM.
Take `COc1ccc(C(=O)N[C@H](CN2CCN(c3cccc(O)c3)[C@@H](C)C2)C(C)C)cc1OC` [compound 24, N-[(1S)-1-{[(3S)-4-(3-Hydroxyphenyl)-3-methylpiperazin-1-yl]methyl}-2-methylpropyl]-3,4-dimethoxybenzamide]: the Kb is 334 ± 110 nM in assay [1], over 10000 nM in assay [2] and 81.7 ± 30 nM in assay [3]. Moreover, the δ/κ in assay [3] (ratio of Ke values) was over 122.
In the case of “N-(1S)-1-{[(3S)-4-(3-Hydroxyphenyl)-3-methylpiperazin-1-yl]methyl}-2-methylpropyl]-5-phenoxypyridine-2-carboxamide [compound 14]”, the δ/κ in assay [3] (ratio of Ke values) stood at 1119. The μ/κ in assay [3] (ratio of Ke values, selectivity for κ relative to μ (fold)) is given as 38.

For the origin of these results see paper PMC3701944 (Journal of medicinal chemistry, 2013).
